# pEC50, pIC50: −log10 of the molar value. Activity calls are given as the source filed them. The calls are words filed in the database; no cut-off is given here.
# Experiments:
# [1] = target: Acetylcholinesterase (Electrophorus electricus, UniProt O42275); assay: Inhibition of electric eel AChE preincubated for 15 mins followed by addition of acetylcholine iodide as substrate by Ellman's assay
# [2] = Antioxidant activity assessed as DPPH radical scavenging activity at 1 mM after 30 mins; format: physicochemical; details: 0.5 h, 1000 µM
# [3] = test system: SH-SY5Y; assay: Cytotoxicity against human SH-SY5Y cells assessed as cell viability at 1.5 to 5 uM after 25 hrs by MTT assay; format: cell-based
# [4] = test system: SH-SY5Y; assay: Cytotoxicity against human SH-SY5Y cells assessed as cell viability at 1.5 uM after 25 hrs by MTT assay relative to control; format: cell-based
# [5] = target: Amyloid-beta precursor protein (Homo sapiens) (UniProt P05067); assay: Inhibition of Amyloid beta (1 to 42) (unknown origin) self-induced aggregation at 80 uM for 24 hrs by Thioflavin T-based fluorometric assay
# [6] = Cytotoxicity against ovarian cancer cells (unknown origin); format: cell-based; details: Cancer cell lines
# [7] = test system: SH-SY5Y; assay: Neuroprotective activity against human SH-SY5Y cells assessed as reduction of Amyloid beta 42-induced cytotoxicity at 2.5 uM preincubated with compound for 1 hr followed by Amyloid beta 42 peptide addition for 24 hrs by MTT reduction assay; format: functional, cell-based
# [8] = test system: SH-SY5Y; assay: Neuroprotective activity against human SH-SY5Y cells assessed as reduction of H2O2-induced oxidative stress at 2.5 uM preincubated with compound for 1 hr followed by H2O2 addition for 24 hrs by MTT reduction assay; format: functional, cell-based
# [9] = Antioxidant activity assessed as DPPH radical scavenging activity after 30 mins; format: physicochemical
# [10] = test system: SH-SY5Y; assay: Neuroprotective activity against human SH-SY5Y cells assessed as reduction of H2O2-induced oxidative stress at 5 uM preincubated with compound for 1 hr followed by H2O2 addition for 24 hrs by MTT reduction assay; format: functional, cell-based
# [11] = test system: SH-SY5Y; assay: Cytotoxicity against human SH-SY5Y cells assessed as cell viability at 2.5 uM after 25 hrs by MTT assay relative to control; format: cell-based
# Sequence of Amyloid-beta precursor protein (Homo sapiens) (P05067 whole entry): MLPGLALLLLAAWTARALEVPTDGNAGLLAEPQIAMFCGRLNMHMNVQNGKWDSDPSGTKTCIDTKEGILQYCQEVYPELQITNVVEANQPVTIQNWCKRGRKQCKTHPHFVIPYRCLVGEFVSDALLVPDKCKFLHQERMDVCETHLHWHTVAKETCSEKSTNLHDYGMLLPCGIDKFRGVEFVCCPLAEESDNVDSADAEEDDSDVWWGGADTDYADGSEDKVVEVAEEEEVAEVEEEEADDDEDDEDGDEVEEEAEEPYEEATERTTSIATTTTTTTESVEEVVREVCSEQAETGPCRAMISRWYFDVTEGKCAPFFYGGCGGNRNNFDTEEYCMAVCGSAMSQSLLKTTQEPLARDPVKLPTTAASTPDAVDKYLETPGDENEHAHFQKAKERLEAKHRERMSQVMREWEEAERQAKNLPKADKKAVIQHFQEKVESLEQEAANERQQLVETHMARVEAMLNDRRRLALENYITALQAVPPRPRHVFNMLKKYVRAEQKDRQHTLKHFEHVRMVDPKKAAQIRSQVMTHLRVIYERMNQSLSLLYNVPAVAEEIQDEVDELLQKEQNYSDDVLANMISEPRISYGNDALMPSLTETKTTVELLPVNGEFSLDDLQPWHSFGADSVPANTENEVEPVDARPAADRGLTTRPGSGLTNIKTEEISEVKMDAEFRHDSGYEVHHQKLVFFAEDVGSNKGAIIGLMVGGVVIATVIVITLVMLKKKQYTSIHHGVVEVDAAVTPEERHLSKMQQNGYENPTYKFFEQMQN
# Sequence of Acetylcholinesterase (O42275 whole entry): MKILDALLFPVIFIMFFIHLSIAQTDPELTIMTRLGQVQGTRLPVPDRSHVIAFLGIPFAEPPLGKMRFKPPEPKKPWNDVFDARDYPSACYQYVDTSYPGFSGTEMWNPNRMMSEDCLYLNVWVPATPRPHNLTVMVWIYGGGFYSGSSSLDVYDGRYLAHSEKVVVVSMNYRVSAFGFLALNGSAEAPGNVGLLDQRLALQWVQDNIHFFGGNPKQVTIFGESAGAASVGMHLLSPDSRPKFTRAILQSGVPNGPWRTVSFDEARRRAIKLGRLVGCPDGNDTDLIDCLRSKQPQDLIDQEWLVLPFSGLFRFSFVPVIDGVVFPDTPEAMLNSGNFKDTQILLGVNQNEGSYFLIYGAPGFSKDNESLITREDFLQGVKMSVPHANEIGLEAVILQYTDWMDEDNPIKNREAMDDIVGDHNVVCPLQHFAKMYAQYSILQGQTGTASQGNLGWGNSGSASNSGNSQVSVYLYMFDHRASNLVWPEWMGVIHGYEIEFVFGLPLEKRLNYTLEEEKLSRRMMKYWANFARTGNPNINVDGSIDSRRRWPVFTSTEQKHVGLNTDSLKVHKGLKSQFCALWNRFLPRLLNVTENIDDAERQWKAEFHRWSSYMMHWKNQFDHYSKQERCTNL
SMILES,pIC50 [1],Activity [2],Activity [3],also measured
O=C(/C=C/C=C/c1ccc2c(c1)OCO2)NCCNc1c2c(nc3ccccc13)CCCC2,6.52,26.2%,Toxic,Activity [4]: Toxic
O=C(/C=C/c1ccc2c(c1)OCO2)NCCNc1c2c(nc3ccccc13)CCCC2,6.74,12.2%,Toxic,inhibition [5]: 30.9%
COc1ccc(/C=C/C(=O)NCCNc2c3c(nc4ccccc24)CCCC3)cc1OC,7.05,8.8%,,pIC50 [6]: 4.98; inhibition [5]: 19.6%; Activity [7]: Active; Activity [8]: Active
COc1ccc(/C=C/C(=O)NCCCCNc2c3c(nc4ccccc24)CCCC3)cc1OC,6.41,16.1%,,
O=C(/C=C/C=C/c1ccc2c(c1)OCO2)NCCCNc1c2c(nc3ccccc13)CCCC2,6.89,20.8%,Toxic,pIC50 [6]: 5.60; inhibition [5]: 72.2%
O=C(/C=C/C=C/c1ccccc1)NCCCCNc1c2c(nc3ccccc13)CCCC2,6.21,23%,,Activity [4]: Toxic
O=C(/C=C/c1ccc(O)c(O)c1)NCCCNc1c2c(nc3ccccc13)CCCC2,6.01,,Toxic,pEC50 [9]: 4.95; Activity [10]: Active
O=C(/C=C/c1ccc2c(c1)OCO2)NCCCCNc1c2c(nc3ccccc13)CCCC2,6.14,18.6%,Toxic,
O=C(/C=C/c1ccccc1)NCCCNc1c2c(nc3ccccc13)CCCC2,6.42,16.3%,Toxic,Activity [11]: Toxic
O=C(/C=C/c1ccc2c(c1)OCO2)NCCCNc1c2c(nc3ccccc13)CCCC2,6.89,15.4%,Toxic,pIC50 [6]: 5.24; inhibition [5]: 8.27%
O=C(/C=C/c1ccccc1)NCCNc1c2c(nc3ccccc13)CCCC2,6.11,7.9%,Toxic,
O=C(/C=C/c1ccc(O)c(O)c1)NCCNc1c2c(nc3ccccc13)CCCC2,6.08,,Toxic,pEC50 [9]: 4.91
O=C(/C=C/c1ccccc1)NCCCCNc1c2c(nc3ccccc13)CCCC2,6.07,22.5%,,Activity [7]: Active
O=C(/C=C/C=C/c1ccc(O)c(O)c1)NCCNc1c2c(nc3ccccc13)CCCC2,5.96,,Non-toxic,pEC50 [9]: 5.02; Activity [10]: Active
O=C(/C=C/C=C/c1ccccc1)NCCCNc1c2c(nc3ccccc13)CCCC2,6.54,16.9%,Toxic,
O=C(/C=C/C=C/c1ccc(O)c(O)c1)NCCCNc1c2c(nc3ccccc13)CCCC2,6.32,,Non-toxic,pEC50 [9]: 5.04
COc1ccc(/C=C/C(=O)NCCCNc2c3c(nc4ccccc24)CCCC3)cc1OC,7.05,16.8%,,pIC50 [6]: 4.71; inhibition [5]: 56.5%; Activity [8]: Active
O=C(/C=C/C=C/c1ccccc1)NCCNc1c2c(nc3ccccc13)CCCC2,6.49,15.6%,Toxic,Activity [4]: Toxic

# Source: ChEMBL document CHEMBL3769323, “Design, synthesis and bioevaluation of tacrine hybrids with cinnamate and cinnamylidene acetate derivatives as potential anti-Alzheimer drugs” (Medchemcomm, 2015)
